The supplement of paper PMC10307832

Experiments:
Assay in all cases: relative viability (nuclei count vs DMSO), 5 days (fraction); higher = more cells survive
[1] = tested on: LK-2
How it was run: (§1)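 Lung cancer cell lines, seeded in 1536-well plates, were treated the following day by pin tool with a single drug or with five library-drug doses (not always all listed) in √10 steps on top of a fixed anchor-drug dose. Cells were fixed and nuclei stained in one step after 5 days, and nuclei were counted. Relative viability is the nuclei count for treated wells divided by that for vehicle wells, reported as medians of duplicate plates.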

[2] = tested on: NCI-H1975
How it was run: as §1

[3] = tested on: NCI-H661
How it was run: as §1

[4] = tested on: BEN
How it was run: as §1

[5] = tested on: NCI-H2087
How it was run: as §1

[6] = tested on: LCLC-97TM1
How it was run: as §1

[7] = tested on: PC-3 [JPC-3]
How it was run: as §1

[8] = tested on: SK-MES-1
How it was run: as §1

[9] = tested on: NCI-H1666
How it was run: as §1

[10] = tested on: ChaGo-K-1
How it was run: as §1

[11] = tested on: NCI-H2342
How it was run: as §1

[12] = tested on: NCI-H1944
How it was run: as §1

[13] = tested on: NCI-H596
How it was run: as §1

[14] = tested on: NCI-H1651
How it was run: as §1

[15] = tested on: LC-2-ad
How it was run: as §1

[16] = tested on: NCI-H358
How it was run: as §1

[17] = tested on: NCI-H1355
How it was run: as §1

[18] = tested on: NCI-H650
How it was run: as §1

[19] = tested on: LU99A
How it was run: as §1

[20] = tested on: NCI-H838
How it was run: as §1

[21] = tested on: LXF-289
How it was run: as §1

SMILES: Nc1ccn([C@@H]2O[C@H](CO)[C@@H](O)[C@@H]2O)c(=O)n1 [Cytarabine] + CCNC(=O)c1noc(-c2cc(C(C)C)c(O)cc2O)c1-c1ccc(CN2CCOCC2)cc1 [Luminespib] (partner 0.01 µM)
- relative viability ([1]; first compound 0.005 µM): 0.193
- relative viability ([1]; first compound 0.01581 µM): 0.187
- relative viability ([1]; first compound 0.05 µM): 0.197
- relative viability ([1]; first compound 0.1581 µM): 0.155
- relative viability ([1]; first compound 0.5 µM): 0.176
- relative viability ([2]; first compound 0.005 µM): 0.536
- relative viability ([2]; first compound 0.01581 µM): 0.316
- relative viability ([2]; first compound 0.05 µM): 0.193
- relative viability ([2]; first compound 0.1581 µM): 0.209
- relative viability ([2]; first compound 0.5 µM): 0.171
- relative viability ([3]; first compound 0.005 µM): 0.805
- relative viability ([3]; first compound 0.01581 µM): 0.873
- relative viability ([3]; first compound 0.05 µM): 0.766
- relative viability ([3]; first compound 0.1581 µM): 0.511
- relative viability ([3]; first compound 0.5 µM): 0.37
- relative viability ([4]; first compound 0.005 µM): 0.178
- relative viability ([4]; first compound 0.01581 µM): 0.324
- relative viability ([4]; first compound 0.05 µM): 0.247
- relative viability ([4]; first compound 0.1581 µM): 0.178
- relative viability ([4]; first compound 0.5 µM): 0.122
- relative viability ([5]; first compound 0.005 µM): 0.151
- relative viability ([5]; first compound 0.01581 µM): 0.134
- relative viability ([5]; first compound 0.05 µM): 0.169
- relative viability ([5]; first compound 0.1581 µM): 0.151
- relative viability ([5]; first compound 0.5 µM): 0.134
- relative viability ([6]; first compound 0.005 µM): 0.742
- relative viability ([6]; first compound 0.01581 µM): 0.69
- relative viability ([6]; first compound 0.05 µM): 0.709
- relative viability ([6]; first compound 0.1581 µM): 0.318
- relative viability ([6]; first compound 0.5 µM): 0.344
- relative viability ([7]; first compound 0.005 µM): 0.754
- relative viability ([7]; first compound 0.01581 µM): 0.73
- relative viability ([7]; first compound 0.05 µM): 0.782
- relative viability ([7]; first compound 0.1581 µM): 0.453
- relative viability ([7]; first compound 0.5 µM): 0.551
- relative viability ([8]; first compound 0.005 µM): 0.934
- relative viability ([8]; first compound 0.01581 µM): 0.565
- relative viability ([8]; first compound 0.05 µM): 0.319
- relative viability ([8]; first compound 0.1581 µM): 0.226
- relative viability ([8]; first compound 0.5 µM): 0.232
- relative viability ([9]; first compound 0.005 µM): 1.01
- relative viability ([9]; first compound 0.01581 µM): 0.94
- relative viability ([9]; first compound 0.05 µM): 0.675
- relative viability ([9]; first compound 0.1581 µM): 0.539
- relative viability ([9]; first compound 0.5 µM): 0.579
- relative viability ([10]; first compound 0.005 µM): 0.649
- relative viability ([10]; first compound 0.01581 µM): 0.43
- relative viability ([10]; first compound 0.05 µM): 0.263
- relative viability ([10]; first compound 0.1581 µM): 0.206
- relative viability ([10]; first compound 0.5 µM): 0.188
- relative viability ([11]; first compound 0.005 µM): 0.597
- relative viability ([11]; first compound 0.01581 µM): 0.723
- relative viability ([11]; first compound 0.05 µM): 0.642
- relative viability ([11]; first compound 0.1581 µM): 0.462
- relative viability ([11]; first compound 0.5 µM): 0.444
- relative viability ([12]; first compound 0.005 µM): 0.619
- relative viability ([12]; first compound 0.01581 µM): 0.343
- relative viability ([12]; first compound 0.05 µM): 0.264
- relative viability ([12]; first compound 0.1581 µM): 0.185
- relative viability ([12]; first compound 0.5 µM): 0.134
- relative viability ([13]; first compound 0.005 µM): 0.933
- relative viability ([13]; first compound 0.01581 µM): 0.841
- relative viability ([13]; first compound 0.05 µM): 0.685
- relative viability ([13]; first compound 0.1581 µM): 0.548
- relative viability ([13]; first compound 0.5 µM): 0.388
- relative viability ([14]; first compound 0.005 µM): 0.751
- relative viability ([14]; first compound 0.01581 µM): 1.02
- relative viability ([14]; first compound 0.05 µM): 0.954
- relative viability ([14]; first compound 0.1581 µM): 0.705
- relative viability ([14]; first compound 0.5 µM): 0.262
- relative viability ([15]; first compound 0.005 µM): 0.892
- relative viability ([15]; first compound 0.01581 µM): 0.994
- relative viability ([15]; first compound 0.05 µM): 0.768
- relative viability ([15]; first compound 0.1581 µM): 0.636
- relative viability ([15]; first compound 0.5 µM): 0.478
- relative viability ([16]; first compound 0.005 µM): 0.338
- relative viability ([16]; first compound 0.01581 µM): 0.582
- relative viability ([16]; first compound 0.05 µM): 0.34
- relative viability ([16]; first compound 0.1581 µM): 0.144
- relative viability ([16]; first compound 0.5 µM): 0.181
- relative viability ([17]; first compound 0.005 µM): 0.612
- relative viability ([17]; first compound 0.01581 µM): 0.734
- relative viability ([17]; first compound 0.05 µM): 0.623
- relative viability ([17]; first compound 0.1581 µM): 0.344
- relative viability ([17]; first compound 0.5 µM): 0.402
- relative viability ([18]; first compound 0.005 µM): 0.606
- relative viability ([18]; first compound 0.01581 µM): 0.485
- relative viability ([18]; first compound 0.05 µM): 0.253
- relative viability ([18]; first compound 0.1581 µM): 0.187
- relative viability ([18]; first compound 0.5 µM): 0.17
- relative viability ([19]; first compound 0.005 µM): 0.209
- relative viability ([19]; first compound 0.01581 µM): 0.199
- relative viability ([19]; first compound 0.05 µM): 0.217
- relative viability ([19]; first compound 0.1581 µM): 0.167
- relative viability ([19]; first compound 0.5 µM): 0.201
- relative viability ([20]; first compound 0.005 µM): 0.234
- relative viability ([20]; first compound 0.01581 µM): 0.3
- relative viability ([20]; first compound 0.05 µM): 0.303
- relative viability ([20]; first compound 0.1581 µM): 0.186
- relative viability ([20]; first compound 0.5 µM): 0.167
- relative viability ([21]; first compound 0.005 µM): 0.673
- relative viability ([21]; first compound 0.01581 µM): 0.665
- relative viability ([21]; first compound 0.05 µM): 0.43
- relative viability ([21]; first compound 0.1581 µM): 0.266
- relative viability ([21]; first compound 0.5 µM): 0.149
